This is an account of results in a melting point compilation (Tetko et al.; mined from patent text by program, amines drawn as free bases though some values may be those of a salt).

Structures are written as SMILES. Where only a bound is given, the exact number is not on record here.

The melting point is the temperature, or range, at which the solid turns liquid.

The molecule `NNC(=O)C1(N)CCN(Cc2ccccc2)CC1` displayed a melting point of 231 °C. `O=C1OC(=O)c2c1cccc2N1C(=O)CCC1=O` registered a melting point of 202 to 205 °C.

As to `NC(=O)CC1CN=C(c2cc3cc(OC(F)(F)F)cc(NS(=O)(=O)c4cccs4)c3[nH]2)S1` (configuration not stated), the melting point fell in the range of 239 to 240 °C.

Consider `Cc1c(F)cnc(N)c1F`, for which the melting point is 92 to 93 °C.

In turn, `Cc1cc2ccncc2c(=O)c2ccccc12` gave a melting point of 112 to 116 °C. The same measure for `c1csc(-c2nc(COc3ccc(CCCCn4ccnc4)cc3)cs2)c1`: 108 to 109 °C; for `COc1ccc(C2(C#Cc3ccccc3)CCC(=O)CC2)cc1OC1CCCC1`: 99 to 100 °C. The value for `O=C(O)CCCCCc1cnc2ccccc2c1` was 129 to 131 °C; that for `Cc1cc([N+](=O)[O-])c(C)cc1Cc1cccc(C(F)(F)F)c1` was 75 to 77 °C; that for `Cc1ccc(C(=O)NN=C(N)CS(=O)(=O)c2ccccc2)o1` was 219 to 220 °C.

As to `Cn1ncc2c1C(=O)C(Cl)=C(NC1CC1)C2=O`, the melting point lay in the range of 175 to 176 °C.

With `COc1ccc(-c2c(O)c3ccccc3[nH]c2=O)cc1OC`, the melting point lay in the range of 312 to 314 °C.

For the molecule `CCn1c(=O)c(=O)[nH]c2cccc(C)c21`, the melting point was greater than 300 °C.

Molecule `O=C(Cn1c(-c2ccc(Cl)cc2)nc2cccnc21)NC1CC1` displayed a melting point of 231 to 232 °C.

In the case of `COC(=O)C(=O)CC(C)C1CCC2C3CC=C4CC(OC(C)=O)CCC4(C)C3CCC12C` (configuration not stated), the melting point was in the range of 146 to 147 °C. For `OC1CSC(Oc2ccc(-c3ccc(C(F)(F)F)cc3)nc2)C(O)C1O` (configuration not stated), the melting point lay within 194 to 195 °C.

As for `COC(=O)c1cnn(-c2cccc(Cl)c2)c1C(N)=O`, the melting point lay in the range of 191 to 192 °C. The same measure for `CCOc1cc(CCl)nc(C)n1`: 29 °C; for `CSc1ccc(C2=C(Cl)C(=O)OC2)cc1`: 156 to 158 °C.

`COc1ccc(N2C(=O)C(N=[N+]=[N-])C2c2ccc(C(=O)O)cc2)cc1` (configuration not stated) gave a melting point of 190 °C. As for `CCn1ncc2c(NCc3ccco3)c3ccccc3nc21`, the melting point was 156 to 158 °C. The molecule `O=C(CC1CCCCC1)Nc1c(Cl)ccc2nc(N3CC[C@@H](O)C3)ccc12` registered a melting point of 219 to 221 °C. As to `COC(=O)c1nccnc1Br`, the melting point lay within 43 to 45 °C. The same measure for `O=C(Cc1ccc(Cl)cc1Cl)N1CCN(c2cnccn2)CC1`: 124 to 125 °C; for `OC1CSC(Oc2cccnc2-c2nnn[nH]2)C(O)C1O` (configuration not stated): 170 °C.

Molecule `NS(=O)(=O)c1ccc(NC(=O)Nc2ccccc2-c2ccccc2)cc1` came in with a melting point of 229 to 231 °C. The same measure for `COc1cc2c(cc1Nc1ncc(Cl)c(Nc3ccc(N(C)C)cc3OC)n1)CCN(CCN1CCOCC1)CC2`: 115 °C; for `Cc1cc(OCc2ccccc2)ccc1OCc1ccccc1`: 42 to 43 °C; for `CCCCCCC1(CCCCCC)c2ccccc2-c2ccccc21`: 31 to 33 °C.

`Clc1cccc(-c2ccc3cnc(Nc4ccc(N5CCOCC5)nc4)nn23)c1` had a melting point of 221 to 222 °C.

With `Cc1cc(C)c(NC(=O)C2c3ccccc3COc3ccc(C)cc32)c(C)c1` (configuration not stated), the melting point lay within 148 to 149 °C.

In turn, `CC(C)C[C@H](NC(=O)c1cccs1)C(=O)N[C@@H](C(C)C)[C@@H](O)c1c(-c2ccccc2)c1=O` registered a melting point of 171 to 172 °C. The value for `N#Cc1cc([N+](=O)[O-])ccc1Sc1ccccc1` was 82 to 84 °C. The same measure for `N#Cc1ccccc1N1CCN(CC(=O)Nc2ccccc2)CC1`: 137 to 138 °C; for `Cc1nnc2ccc(-c3cccc(NC(=O)C4CCC4)c3)nn12`: 242 to 245 °C; for `COC(=O)c1ccc(C(C(N)=O)C(C)c2cc(Cl)ccc2N2CCCC(C)C2)cc1` (configuration not stated): 160 to 162 °C. The same measure for `O=C1Nc2cc([N+](=O)[O-])ccc2OC1(C(F)F)C(F)F`: 178 to 181 °C; for `O=c1ccc(-c2ccccc2F)n[nH]1`: 173 to 175 °C; for `O=c1cc(C(F)(F)F)ccn1-c1c(Cl)cc(CO)cc1Cl`: 151 to 152 °C.

`O=C(N[C@H]1CC[C@H](CCN2CCN(c3nccc4c3OCC4)CC2)CC1)C1(O)CCC1`: the melting point is 250 °C.

`CC(=O)SCC(Cc1ccccc1)C(=O)NC(CCCNC(=N)N)C(=O)O` (configuration not stated) had a melting point of 253 to 295 °C. `CCN(C(=O)c1cc(C(C)(C)C)c(OC(=O)c2cc(C(C)(C)C)c(O)c(C(C)(C)C)c2)c(C(C)(C)C)c1)c1ccc(C)cc1` returned a melting point of 214 to 216 °C. Regarding `CCCC(=O)NCCC1=CCc2cc(F)c(OC)cc21`, the melting point lay in the range of 90 to 92 °C. The same measure for `CCCS(=O)CC(=O)NNC(=O)N1Cc2ccccc2Oc2ccc(Cl)cc21` (configuration not stated): 158 to 160 °C; for `Cc1c(C(N)=O)c(C(F)(F)F)nn1-c1c(Cl)cc(C(F)(F)F)cc1Cl`: 165 to 170 °C.

With `CC(Cl)(Cl)c1nc2c(C(F)(F)F)cccc2c(=O)o1`, the melting point was 120 °C. The value for `CCc1c(C(=O)C(N)=O)c2c(OCC(=O)OC)cc3c(c2n1Cc1ccccc1)CCCC3` was 51 to 53 °C.

`COc1ccc(-c2sc3ccccc3c2C(=O)c2ccc(O)cc2)cc1` showed a melting point of 188 to 189 °C. `CNC=C1C(=O)C(C)(C)OC1(C)C` registered a melting point of 80 to 82 °C.

With `COc1ccccc1OCC(=O)NCCO[N+](=O)[O-]`, the melting point lay in the range of 63 to 64 °C. The value for `Cn1cc2c(n1)c(N)nc1ccccc12` was 218 to 219 °C; that for `CCCCCCCCOc1ccc(C(=O)Oc2ccc3c(c2)C(C)c2cc(O)ccc2-3)cc1` (configuration not stated) was 140 to 143 °C. For the molecule `C#Cc1cccc(N2C(=O)c3ccccc3C2=O)c1`, the melting point fell in the range of 197 to 198 °C. The same measure for `CCNC(C)CCC1(C(N)=O)c2ccccc2-c2ccccc21` (configuration not stated): 180 to 182 °C; for `COc1ccc(N2CCN(c3ccc(-n4cnnc4SC)cc3)CC2)cc1`: 180 °C; for `Oc1ccc2c(c1)COc1c-2cc2ccc(O)cc2c1-c1ccoc1`: 216 to 218 °C. As for `CN1CCC(c2c[nH]c3cc(NC(=N)c4cccs4)ccc23)C1` (configuration not stated), the melting point is 89 to 91 °C.

The molecule `COc1ccc([N+](=O)[O-])c(C=C2C(=O)NC(=O)N2C)c1` registered a melting point of 257 to 260 °C. The same measure for `CCCCOc1c(OC)cc(C(=O)O)cc1[N+](=O)[O-]`: 114 to 115 °C.

In the case of `CC(C)(C)OC(=O)COc1ccc(C(=O)CN2CCN(c3ccncc3)CC2)cc1`, the melting point lay within 103 to 104 °C.

`O=c1c2ccc(O)cc2[nH]n1Cc1ccccc1`: the melting point lay within 206 to 207 °C. As to `CCOC(=O)C(CC#N)(C(=O)OCC)C1COC(=O)C1` (configuration not stated), the melting point lay within 77 to 78 °C. The value for `COc1c(C)cc(-c2cc(-c3cccnc3)c(N3CCOCC3)s2)nc1C` was 139 to 140 °C; that for `Cc1ccc(S(=O)(=O)N2[C@@H](CCC#N)CC[C@H]2c2ccc(F)cc2)cc1` (racemic) was 86 °C.

Consider `Cc1cc2c(N3CCC(CCO)CC3)ccc(C#N)c2o1`, for which the melting point was 106 to 107 °C. The value for `COc1ccc(C(=O)C=CC(=O)O)cc1OC` was 174 to 175 °C. The value for `c1ccc(-c2ccc3nncn3n2)cc1` was 138 to 139 °C. `CC(C)(C)OC(=O)Nc1ccc(Cl)c(C(F)(F)F)c1` came in with a melting point of 90 °C.

`CCOC(=O)C1=C(CSC(C)=O)NC(C)=C(C#N)C1c1cccc([N+](=O)[O-])c1` (configuration not stated) gave a melting point of 155 to 157 °C. The value for `CC(=O)c1ccccc1OC1SCC(O)C(O)C1O` (configuration not stated) was 102 to 105 °C; that for `CC(=O)c1cc(Br)c(OCCCBr)c(Br)c1` was 87 to 88 °C; that for `Cc1ccc(C(N)=S)cc1C` was 120 to 125 °C. The value for `C=CCn1c(=O)c2c(nc(/C=C/c3cc(OC)c(OC(=O)c4ccccc4)c(OC)c3)n2C)n(CC=C)c1=O` was 179 to 180 °C; that for `CCOCn1c(C(F)(F)F)c(C#N)c2ccc(Cl)c(Cl)c21` was 122 to 127 °C.

Molecule `C=CC1CN(c2ncc(C(=O)N(CCCCC)c3cccc(C(F)(F)F)c3)c(N)n2)C(=O)N1` (configuration not stated) displayed a melting point of 135 to 137 °C. The value for `NS(=O)(=O)c1ccc(N2CCN(CCC3=CCCc4ccccc43)CC2)cc1` was 222 °C. `O=C(Nc1cccc(Nc2ccc3c(c2)NC(=O)C3=Cc2ccc[nH]2)c1)Nc1cccc(C(F)(F)F)c1` returned a melting point of 253 to 256 °C. The same measure for `COc1nc(NC(=S)NS(=O)(=O)c2ccccc2)nc(OC)n1`: 148 to 150 °C. The value for `CCOP(=O)(OCC)c1nc(N2CCOCC2)nc(N2CCOCC2)n1` was 114 to 116 °C.

In turn, `c1ccc(Nc2ccncc2Oc2ccccc2)cc1` yielded a melting point of 111 to 113 °C. Regarding `CCCCc1nc(C2CCCCC2)n(Cc2ccc(-c3ccccc3-c3ncn[nH]3)cc2)n1`, the melting point lay within 158 to 160 °C. The same measure for `CN1CCC(c2[nH]c(=O)c3ccccc3c2-c2ccc(Cl)cc2)CC1`: 254 to 256 °C. The same measure for `CN(C)c1cc2ccccn2n1`: 51 to 52 °C; for `CC(C)(C)OC(=O)N1C[C@@H](S)C[C@@H]1CN(C(=O)OC(C)(C)C)S(N)(=O)=O`: 90 to 91.5 °C. The molecule `CC(C)c1ccc(NC(=O)Oc2ccc3c(c2)CCN3)cc1` had a melting point of 166 to 170 °C. The value for `Cc1c(CO)c(CO)c2n1-c1ccccc1C2` was 123 to 125 °C; that for `O=C(c1cccs1)c1cnn2c(-c3cccc(-c4nnn(Cc5cccnc5)n4)c3)ccnc12` was 95 °C. The same measure for `COC(=O)C1Oc2ccccc2Cc2cccc(O)c2O1` (configuration not stated): 163 to 165 °C; for `C[C@@H](n1cnc2cc(-c3ccc(C#N)cc3)sc2c1=O)[C@](O)(Cn1cncn1)c1ccc(F)cc1F`: 231 to 232 °C; for `Cc1nc(C)c(Cl)c(NCc2cc(OCC(F)(F)F)c(OCc3ccccc3)c(Br)n2)n1`: 97 to 98 °C. The same measure for `CCCN1CCC(c2ccccc2)=C(C(=O)NOCc2ccccc2)C1`: 143 to 145 °C; for `N#Cc1nn(-c2c(Cl)cc(C(F)(F)F)cc2Cl)c(N)c1-c1ccoc1C(F)(F)F`: 155 to 157 °C.
